The nature of series [1]: Moisture uptake by ganciclovir in an open Petri dish. It counts as physicochemical. The following applies: ganciclovir containing 1.99% water, 25° C., 60% RH. As to the method:
Different formulations containing variable percentages of water were subjected to stability and moisture uptake studies. For example, ganciclovir containing 1.99% water content was subjected to moisture uptake at 25° C. and 60% relative humidity (RH) in an open Petri dish and the increase in weight was monitored.

Series [2] can be described thus: Accelerated stability testing of packaged final product. The series is classed as physicochemical. Conditions: 40° C., 75% RH. As to the method: Accelerated stability testing was conducted by varying the water content of ganciclovir between 1.99% w/w and 2.54% w/w. The packages of final product were stored at 40° C. and 75% RH for a period of three months. At predetermined intervals, some of the packages were opened and analyzed to determine the amount of active ingredient, related impurities (RS), and water content present in the formulation.

In series [3] the test system is cytomegalovirus (CMV). The following applies: human clinical studies; cited from earlier work.
In series [4] the test system is herpes simplex virus (HSV). The following applies: human clinical studies; cited from earlier work.

The values that follow come from patent US20060189565A1, “Pharmaceutical compositions of ganciclovir” (priority 2002, published 2006).

`Nc1nc2c(ncn2COC(CO)CO)c(=O)[nH]1` [ganciclovir, 9-(1,3-dihydroxy-2-propoxymethyl) guanine]: the “Increase in moisture during storage” value in series [1] was “no appreciable increase in moisture during storage”. Also, the Moisture gain was found to be 0.12 % w/w in series [1] (2.0 hrs); 0.38 % w/w in series [1] (4.0 hrs); 0.46 % w/w in series [1] (8.0 hrs); 0.49 % w/w in series [1] (48.0 hrs); 0.50 % w/w in series [1] (168.0 hrs (1 week)). In addition, the initial purity retained result in series [2] (after one month) is given as “at least 97%”; in series [2] (after three months), “at least 87%”; in series [2] (after two months), “at least 96%”. The purity lost result in series [2] (after one month) is listed as “less than about three percent”; in series [2] (after three months), “less than about five percent”; in series [2] (after two months), “less than about four percent”. Also, the “activity against cytomegalovirus (CMV)” value in series [3] was “active”. The “activity against herpes simplex virus (HSV)” value in series [4] was “active”.
